The test system of the test is c-Myc. As to the kind of experiment: c-Myc ELISA assay protocol in 22RV-1 cells. In kind it is cell-based, human. To be noted: 18 h, read-out: cMyc IC50. The method, then: In each bioassay, cells were treated with varying amounts of compounds encompassed by the present disclosure, as shown in Table 1. The degradation of the following proteins were evaluated in this study: TANK-binding kinase 1 (TBK1), estrogen receptor α (ERα), bromodomain-containing protein 4 (BRD4), androgen receptor (AR), and c-Myc.
5. c-Myc ELISA Assay Protocol
22RV-1 cells were purchased from ATCC and cultured in RPMI+10% FBS media. Cells were harvested using trypsin (Gibco #25200-114), counted and seeded at 30,000 cells/well at a volume of 75 μL/well in RPMI +10% FBS media in 96-well plates. The cells were dosed with compounds diluted in 0.1% DMSO, incubated for 18 h then washed and lysed in 50 uL RIPA buffer (50 mM Tris pH8, 150 mM NaCl, 1% Tx-100, 0.1% SDS, 0.5% sodium deoxycholate) supplemented with protease and phosphatase inhibitors. The lysates were clarified at 4000 rpm at 4° C. for 10 minutes then aliquots were added into a 96-well ELISA plate of Novex Human c-myc ELISA kit from Life Technologies Catalog #KHO2041. 50 ul of c-Myc Detection antibody was added into every well, the plates incubated at room temperature for 3 hrs, then washed with ELISA wash buffer. 100 uL of the anti-rabbit IgG-HRP secondary antibody was added to each well and incubated at room temperature for 30 minutes. The plates were washed with ELISA wash buffer, 100 μL TMB added to each well, and then monitored every 5 minutes for a color change. 100 μL of stop solution is added and the plates read at 450 nm.
A word on the IC50: it is the concentration that gives 50% inhibition. `Cc1sc2c(c1C)C(c1ccc(Cl)cc1)=N[C@@H](CC(=O)Nc1cnc(-c3ccc(OCCCNc4cccc5c4C(=O)N(C4CCC(=O)NC4=O)C5=O)cc3)nc1)c1nnc(C)n1-2` (stereo partly drawn) [Compound 31, 2-((9S)-7-(4-chlorophenyl)-4,5,13-trimethyl-3-thia-1,8,11,12-tetraazatricyclo [8.3.0.02,6]trideca-2(6),4,7,10, 12-pentaen-9-yl)-N-(2-(4-(3-((2-(2,6-dioxopiperidin-3-yl)-1,3-dioxo-2,3-dihydro-1H-isoindol-4-yl)amino)propoxy)phenyl)pyrimidin-5-yl)acetamide]: the IC50 is under 50 nM.

As for `Cc1sc2c(c1C)C(c1ccc(Cl)cc1)=N[C@@H](CC(=O)Nc1ccc(OCCCOCCNc3cccc4c3C(=O)N(C3CCC(=O)NC3=O)C4=O)c(F)c1)c1nnc(C)n1-2` (stereo partly drawn) [Compound 32, 2-((9S)-7-(4-chlorophenyl)-4,5,13-trimethyl-3-thia-1,8,11,12-tetraazatricyclo [8.3.0.02,6]trideca-2(6),4,7,10, 12-pentaen-9-yl)-N-(4-(3-(2-((2-(2,6-dioxopiperidin-3-yl)-1,3-dioxo-2,3-dihydro-1H-isoindol-4-yl)amino)ethoxy)propoxy)-3-fluorophenyl) acetamide], the IC50 was under 50 nM.

As for `Cc1sc2c(c1C)C(c1ccc(Cl)cc1)=N[C@@H](CC(=O)Nc1ccc(OCCCCOCCCNc3cccc4c3C(=O)N(C3CCC(=O)NC3=O)C4=O)cc1F)c1nnc(C)n1-2` (stereo partly drawn) [Compound 33, 2-((9S)-7-(4-chlorophenyl)-4,5,13-trimethyl-3-thia-1,8,11,12-tetraazatricyclo [8.3.0.02,6]trideca-2(6),4,7,10, 12-pentaen-9-yl)-n-(4-(4-(3-((2-(2,6-dioxopiperidin-3-yl)-1,3-dioxo-2,3-dihydro-1h-isoindol-4-yl)amino)propoxy)butoxy)-2-fluorophenyl) acetamide], the IC50 was under 50 nM.

Regarding `Cc1sc2c(c1C)C(c1ccc(Cl)cc1)=N[C@@H](CC(=O)Nc1ccc(OCCCCOCCCNc3cccc4c3C(=O)N(C3CCC(=O)NC3=O)C4=O)c(F)c1)c1nnc(C)n1-2` (stereo partly drawn) [Compound 34, 2-((9S)-7-(4-chlorophenyl)-4,5,13-trimethyl-3-thia-1,8,11,12-tetraazatricyclo [8.3.0.02,6]trideca-2(6),4,7,10, 12-pentaen-9-yl)-N-(4-(4-(3-((2-(2,6-dioxopiperidin-3-yl)-1,3-dioxo-2,3-dihydro-1H-isoindol-4-yl)amino)propoxy)butoxy)-3-fluorphenyl) acetamide], the IC50 was under 50 nM.

`Cc1sc2c(c1C)C(c1ccc(Cl)cc1)=N[C@H](CC(=O)Nc1ccc(OCCOCCOCCOCCNc3cccc4c3CN(C3CCC(=O)NC3=O)C4=O)cc1)c1nnc(C)n1-2` (stereo partly drawn) [Compound 35, 2-((9R)-7-(4-chlorophenyl)-4,5,13-trimethyl-3-thia-1,8,11,12-tetraazatricyclo [8.3.0.02,6]trideca-2(6),4,7,10, 12-pentaen-9-yl)-N-(4-((1-(2-(2,6-dioxopiperidin-3-yl)-1-oxo-2,3-dihydro-1H-isoindol-4-yl)-4,7,10-trioxa-1-azadodecan-12-yl)oxy)phenyl) acetamide]: the IC50 was under 50 nM.

In the case of `Cc1sc2c(c1C)C(c1ccc(Cl)cc1)=N[C@@H](CC(=O)N[C@@H](C)c1ccc(-c3ncc(OCCOCCNc4cccc5c4C(=O)N(C4CCC(=O)NC4=O)C5=O)cn3)cc1)c1nnc(C)n1-2` (stereo partly drawn) [Compound 36, 2-[(9S)-7-(4-chlorophenyl)-4,5,13-trimethyl-3-thia-1,8,11,12-tetraazatricyclo [8.3.0.0^2,^6]trideca-2(6),4,7,10,12-pentaen-9-yl]-N-[(1S)-1-(4-{5-[2-(2-{[2-(2,6-dioxopiperidin-3-yl)-1,3-dioxo-2,3-dihydro-1H-isoindol-4-yl]amino}ethoxy)ethoxy]pyrimidin-2-yl}phenyl)ethyl] acetamide], the IC50 is under 50 nM.

Turning to `Cc1sc2c(c1C)C(c1ccc(Cl)cc1)=N[C@@H](CC(=O)NCCOCCOCCNc1cccc3c1C(=O)N(C1CCC(=O)NC1=O)C3=O)c1nnc(C)n1-2` (stereo partly drawn) [Compound 37, 2-[(9S)-7-(4-chlorophenyl)-4,5,13-trimethyl-3-thia-1,8,11,12-tetraazatricyclo [8.3.0.0^2,^6]trideca-2(6),4,7,10,12-pentaen-9-yl]-N-{2-[2-(2-{[2-(2,6-dioxopiperidin-3-yl)-1,3-dioxo-2,3-dihydro-1H-isoindol-4-yl]amino}ethoxy)ethoxy]ethyl} acetamide], the IC50 was under 50 nM.

Take `Cc1sc2c(c1C)C(c1ccc(Cl)cc1)=N[C@@H](CC(=O)N[C@H](C)c1ccc(OCCOCCNc3cccc4c3CN(C3CCC(=O)NC3=O)C4=O)cc1)c1nnc(C)n1-2` (stereo partly shown) [Compound 38]: the IC50 is under 50 nM.

On to `Cc1sc2c(c1C)C(c1ccc(Cl)cc1)=N[C@@H](CC(=O)NCCOCCNc1cccc3c1CN(C1CCC(=O)NC1=O)C3=O)c1nnc(C)n1-2` (stereo partly drawn) [Compound 39, 2-[(9S)-7-(4-chlorophenyl)-4,5,13-trimethyl-3-thia-1,8,11,12-tetraazatricyclo [8.3.0.0^2,^6]trideca-2(6),4,7,10,12-pentaen-9-yl]-N-[2-(2-{[2-(2,6-dioxopiperidin-3-yl)-1-oxo-2,3-dihydro-1H-isoindol-4-yl]amino}ethoxy)ethyl]acetamide], for which the IC50 was over 50 nM.

With `Cc1sc2c(c1C)C(c1ccc(Cl)cc1)=N[C@@H](CC(=O)N[C@@H](C)c1ccc(-c3ncc(OCCCNc4cccc5c4C(=O)N(C4CCC(=O)NC4=O)C5=O)cn3)cc1)c1nnc(C)n1-2` (stereo partly drawn) [Compound 40, 2-((S)-4-(4-chlorophenyl)-2,3,9-trimethyl-6H-thieno[3,2-f][1,2,4]triazolo[4,3-a][1,4]diazepin-6-yl)-N-((1S)-1-(4-(5-(3-(2-(2,6-dioxopiperidin-3-yl)-1,3-dioxoisoindolin-4-ylamino)propoxy)pyrimidin-2-yl)phenyl)ethyl)acetamide], the half-maximal inhibitory concentration (IC50) is under 50 nM.

In the case of `Cc1sc2c(c1C)C(c1ccc(Cl)cc1)=N[C@@H](CC(=O)N[C@@H](C)c1ccc(OCCCOCCNc3cccc4c3C(=O)N(C3CCC(=O)NC3=O)C4=O)cc1)c1nnc(C)n1-2` (stereo partly drawn) [Compound 41, 2-[9S)-7-(4-chlorophenyl)-4,5,13-trimethyl-3-thia-1,8,11,12-tetraazatricyclo [8.3.0.0^2,^6]trideca-2(6),4,7,10,12-pentaen-9-yl]-N-[(1S)-1-{4-[3-(2-{[2-(2,6-dioxopiperidin-3-yl)-1,3-dioxo-2,3-dihydro-1H-isoindol-4-yl]amino}ethoxy)propoxyphenyl}ethyl]acetamide], the IC50 is under 50 nM.

For the molecule `Cc1sc2c(c1C)C(c1ccc(Cl)cc1)=N[C@@H](CC(=O)N[C@@H](C)c1ccc(OCCOCCNc3cccc4c3CN(C3CCC(=O)NC3=O)C4=O)cc1)c1nnc(C)n1-2` (stereo partly shown) [Compound 42], the half-maximal inhibitory concentration (IC50) is under 50 nM.

As to `Cc1sc2c(c1C)C(c1ccc(Cl)cc1)=N[C@@H](CC(=O)NCCCCNc1cccc3c1C(=O)N(C1CCC(=O)NC1=O)C3=O)c1nnc(C)n1-2` (stereo partly drawn) [Compound 43, 2-[(9S)-7-(4-chlorophenyl)-4,5,13-trimethyl-3-thia-1,8,11,12-tetraazatricyclo [8.3.0.0^2,^6]trideca-2(6),4,7,10,12-pentaen-9-yl]-N-(4-{[2-(2,6-dioxopiperidin-3-yl)-1,3-dioxo-2,3-dihydro-1H-isoindol-4-yl]amino}butyl) acetamide], the IC50 was over 50 nM.

For the molecule `Cc1nnc2n1C1=C(C(c3ccc(Cl)cc3)=N[C@H]2CC(=O)NCCCCCNc2cccc3c2C(=O)N(C2CCC(=O)NC2=O)C3=O)C(C)C(C)S1` (stereo partly drawn) [Compound 45, 2-[(9S)-7-(4-chlorophenyl)-4,5,13-trimethyl-3-thia-1,8,11,12-tetraazatricyclo [8.3.0.0^2,^6]trideca-2(6),4,7,10,12-pentaen-9-yl]-N-(5-{[2-(2,6-dioxopiperidin-3-yl)-1,3-dioxo-2,3-dihydro-1H-isoindol-4-yl]amino}pentyl) acetamide], the concentration for half-maximal inhibition (IC50) was under 50 nM.

For `Cc1sc2c(c1C)C(c1ccc(Cl)cc1)=N[C@@H](CC(=O)NCCCNc1cccc3c1CN(C1CCC(=O)NC1=O)C3=O)c1nnc(C)n1-2` (stereo partly drawn) [Compound 46, 2-[(9S)-7-(4-chlorophenyl)-4,5,13-trimethyl-3-thia-1,8,11,12-tetraazatricyclo [8.3.0.0^2,^6]trideca-2(6),4,7,10,12-pentaen-9-yl]-N-(3-{[2-(2,6-dioxopiperidin-3-yl)-1-oxo-2,3-dihydro-1H-isoindol-4-yl]amino}propyl) acetamide], the IC50 is over 50 nM.

`Cc1sc2c(c1C)C(c1ccc(Cl)cc1)=N[C@@H](CC(=O)NCCCCNc1cccc3c1CN(C1CCC(=O)NC1=O)C3=O)c1nnc(C)n1-2` (stereo partly drawn) [Compound 47, 2-[(9S)-7-(4-chlorophenyl)-4,5,13-trimethyl-3-thia-1,8,11,12-tetraazatricyclo [8.3.0.0^2,^6]trideca-2(6),4,7,10,12-pentaen-9-yl]-N-(4-{[2-(2,6-dioxopiperidin-3-yl)-1-oxo-2,3-dihydro-1H-isoindol-4-yl]amino}butyl) acetamide]: the IC50 was over 50 nM.

Values taken from patent US11834460B2, “Imide-based modulators of proteolysis and associated methods of use” (YALE UNIVERSITY, priority 2018, dated 2023).
